Patent publication US20020155519A1 (priority 1997, published 2002)
Entries after “also recorded” stand apart in the source; their conditions may differ. Where two headings read alike, the source gives them in different places.

What was measured:
[1] = tested on: human blood bacterium (HBB); test: Resistance of HBB to detergents and disinfectants; type: cell-based; conditions: for resistance of HBB to detergent (lysis): 0.1%
[2] = tested on: human blood bacterium (HBB); type: cell-based
Experimental: Normally 1 ml of serum was added to 9 ml of medium. Larger flasks with a proportionately larger amount of serum and medium are used to produce bacteria in quantity. Modulators might be added to some flasks in 10× or higher concentration (corresponding to addition of 1 ml or less). When examining the effect of modulators, control flasks were prepared similarly without the addition of the modulator. Levels were observed microscopically (inverted phase microscope, observing the number of organisms per field crudely or by actual count) after incubation, typically at several points in time.
When multiple comparisons were done at once, they were done in 12 well or 24 well cell culture plates, most often the latter. With the latter, typically 1 ml of medium inoculated with serum is added to each well, with modulators added at 10× or higher concentration (0.1 ml or less). When comparisons are done in well plates, control wells without any additions are included. Levels were observed microscopically (inverted phase microscope) after incubation, typically at several points in time. The well plate cultures were also used for antibiotic sensitivity testing.
These procedures are those known in the art and include uses of antibodies and DNA probes, Western and Southern blots, PCR and the diagnostic kits therefor. First, organisms can be quantified by culture. […] If a means is found to immobilize the bacteria to grow isolated colonies, counts will be more accurate. Quantification is used to follow the progress of treatment and to correlate HBB levels with specific disease syndromes. Quantification is used also for antibiotic sensitivity measurements, comparing the level of growth with antibiotic treatment to the level of growth without treatment. Such antibiotic sensitivity measurements establish the basis for the clinical choice of antibiotic drugs.

[3] = tested on: yeast-like forms of HBB; test: Suppression of yeast-like forms of HBB by antifungal agents; type: cell-based, human blood bacterium (HBB)
[4] = tested on: HBB; type: in vivo, human; conditions: uncontrolled patient trials
Experimental: Experiments have been conducted investigating the correlation of the presence of or increased presence of HBB with the clinical symptoms of three autoimmune diseases, and the results of instituting an antibiotic regimen in patients. […] All patients were cultured repeatedly to determine levels of HBB. The antibiotic treatment regimen was based on antibiotic sensitivities done on a pilot series of cultures and on the known properties of the organism, which clearly requires long-term, continuous treatment to address its very slow growth rate. This approach differs from usual treatment regimens for other bacterial infections. Neither the subjects nor the investigators were blind, and there was no untreated or placebo-treated control group.
Antibiotic treatment consisted of one or more of the following three antibiotic regimens: (1) penicillin V, 500 mg four times a day, plus probenecid, 500 mg four times a day, plus Augmentin 500 mg four times a day; (2) ciprofloxacin, 500 mg three times a day; or (3) isoniazid, 100 mg three times a day. Most patients received a combination of two of the regimens concurrently.
A regime or schedule is continued to optimize effectiveness, balanced against negative effects of treatment.

[5] = tested on: extracellular exudate and the bacteria (HBB); test: Lectin binding to HBB exudate (slime) and bacteria; set-up: species or system human blood bacterium (HBB)
Excerpt: The amount of the exudate produced is strongly influenced by or dependent upon the composition of the culture medium. The current medium formulae (L and O) have been designed to reduce slime production. In the original, crude medium, a centrifuged culture may consist of more than 10% of this gel by volume. In the L and O media, older cultures of HBB may develop a thin layer of gel that traps the cells and makes them adherent to the culture flask.

## CCCCCCCCCCCCOS(=O)(=O)[O-].[Na+] [SDS]
[1]
  resistance of HBB to detergent (lysis): does cause lysis

## CC[C@H]1OC(=O)[C@H](C)[C@@H](O[C@H]2C[C@@](C)(OC)[C@@H](O)[C@H](C)O2)[C@H](C)[C@@H](O[C@@H]2O[C@H](C)C[C@H](N(C)C)[C@H]2O)[C@](C)(OC)C[C@@H](C)C(=O)[C@H](C)[C@@H](O)[C@]1(C)O [clarithromycin]
[2]; concentration not printed
  antibiotic sensitivity of HBB strains/isolates in culture: some strains show sensitivity; also recorded: often stimulate growth
[2]; concentration not printed, listed as Clarithromycin
  antibiotic sensitivity of HBB strains/isolates in culture: appears more effective in culture

## Clc1ccccc1C(c1ccccc1)(c1ccccc1)n1ccnc1 [clotrimazol]
[2]
  observed antibiotic and antifungal sensitivities (outcome, number of isolates): no effect (1 isolate)
[3]
  suppression of yeast-like forms: no suppression

## Cc1onc(-c2ccccc2Cl)c1C(=O)N[C@@H]1C(=O)N2[C@@H]1SC(C)(C)[C@@H]2C(=O)O [cloxacillin]
[2]; 2 μg/ml
  observed antibiotic and antifungal sensitivities (outcome, number of isolates): no effect (16 isolates); also recorded: sensitive (5 isolates); also recorded: growth stimulated (6 isolates)
[2]; concentration not printed
  antibiotic sensitivity of HBB strains/isolates in culture: occasional isolates show higher sensitivity

## Nc1ccc(S(=O)(=O)c2ccc(N)cc2)cc1 [dapsone]
[2]
  observed antibiotic and antifungal sensitivities (outcome, number of isolates): no effect (1 isolate)

## Cc1onc(-c2c(Cl)cccc2Cl)c1C(=O)N[C@@H]1C(=O)N2[C@@H]1SC(C)(C)[C@@H]2C(=O)O [dicloxacillin]
[4]
  clinical response in patients (in words): A few patients have done better

## CC[C@H]1OC(=O)[C@H](C)[C@@H](O[C@H]2C[C@@](C)(OC)[C@@H](O)[C@H](C)O2)[C@H](C)[C@@H](O[C@@H]2O[C@H](C)C[C@H](N(C)C)[C@H]2O)[C@](C)(O)C[C@@H](C)C(=O)[C@H](C)[C@@H](O)[C@]1(C)O [erythromycin]
[2]
  antibiotic sensitivity of HBB strains/isolates in culture: resistant

## Oc1c(Cl)cc(Cl)c(Cl)c1Cc1c(O)c(Cl)cc(Cl)c1Cl [hexachlorophene]
[1]
  resistance of HBB to disinfectant: resistant

## CCN(CCO)CCCC(C)Nc1ccnc2cc(Cl)ccc12 (stereo not shown) [hydroxychloroquin]
[2]; concentration not printed
  antibiotic sensitivity of HBB strains/isolates in culture: synergistic effect with a few isolates

## NNC(=O)c1ccncc1 [isoniazid]
[2]; 2 μg/ml
  observed antibiotic and antifungal sensitivities (outcome, number of isolates): no effect (24 isolates); also recorded: sensitive (5 isolates); also recorded: growth stimulated (6 isolates)
[2]; concentration not printed
  antibiotic sensitivity of HBB strains/isolates in culture: some isolates are sensitive

## Clc1ccc(COC(Cn2ccnc2)c2ccc(Cl)cc2Cl)c(Cl)c1 (stereo not shown) [miconazol]
[2]
  observed antibiotic and antifungal sensitivities (outcome, number of isolates): no effect (1 isolate)
[3]
  suppression of yeast-like forms: no suppression

## CCCCCCCCCCCCN(C)CC(=O)O [n-laurylsarcosine]
[1]
  resistance of HBB to detergent (lysis): resist

## CCn1cc(C(=O)O)c(=O)c2ccc(C)nc21 [nalidixic acid]
[2]; 4 μg/ml
  observed antibiotic and antifungal sensitivities (outcome, number of isolates): no effect (1 isolate)

## C[C@@H]1[C@H](O)[C@@H](C)/C=C/C=C/CC/C=C/C=C/C=C/C=C/C(O[C@H]2O[C@H](C)[C@@H](O)[C@H](N)[C@@H]2O)CC2O[C@](O)(CC(O)C(O)CCC(O)CC(O)CC(O)CC(=O)O[C@H]1C)CC(O)C2C(=O)O (stereo partly shown) [nystatin]
[2]; saturated
  observed antibiotic and antifungal sensitivities (outcome, number of isolates): no effect (1 isolate)
[3]
  suppression of yeast-like forms: no suppression

## Cc1onc(-c2ccccc2)c1C(=O)N[C@@H]1C(=O)N2[C@@H]1SC(C)(C)[C@@H]2C(=O)O [oxacillin]
[2]
  antibiotic sensitivity of HBB strains/isolates in culture: occasional isolates show higher sensitivity

## CC1(C)S[C@@H]2[C@H](NC(=O)Cc3ccccc3)C(=O)N2[C@H]1C(=O)O [penicillin G]
[2]; concentration not printed
  antibiotic sensitivity of HBB strains/isolates in culture: relatively sensitive

## CC1(C)S[C@@H]2[C@H](NC(=O)COc3ccccc3)C(=O)N2[C@H]1C(=O)O [penicillin V]
[2]; 1-2 μg/ml
  observed antibiotic and antifungal sensitivities (outcome, number of isolates): no effect (27 isolates); also recorded: sensitive (17 isolates); also recorded: growth stimulated (4 isolates)
[2]; concentration not printed
  antibiotic sensitivity of HBB strains/isolates in culture: relatively sensitive

## COc1cc(NC(C)CCCN)c2ncccc2c1 (stereo not shown) [primaquine]
[2]
  observed antibiotic and antifungal sensitivities (outcome, number of isolates): no effect (31 isolates); also recorded: sensitive (15 isolates); also recorded: growth stimulated (1 isolate)

## CCN(CC)CCCC(C)Nc1c2ccc(Cl)cc2nc2ccc(OC)cc12 (stereo not shown) [quinacrine]
[2]
  observed antibiotic and antifungal sensitivities (outcome, number of isolates): no effect (1 isolate)

## O=C([O-])c1ccccc1.[Na+] [sodium benzoate]
[2]; 50 μg/ml
  observed antibiotic and antifungal sensitivities (outcome, number of isolates): no effect (1 effect)
[3]
  suppression of yeast-like forms: no suppression

## CCC(=O)[O-].[Na+] [sodium propionate]
[2]; 50-250 μg/ml
  observed antibiotic and antifungal sensitivities (outcome, number of isolates): no effect (2 isolates)
[3]
  suppression of yeast-like forms: no suppression

## CCCCCCCCCCC(=O)[O-].[Na+] [sodium undecylate]
[2]; 50 μg/ml
  observed antibiotic and antifungal sensitivities (outcome, number of isolates): no effect (1 isolate)
[3]
  suppression of yeast-like forms: no suppression

## Cc1cc(NS(=O)(=O)c2ccc(N)cc2)no1 [sulfamethoxazole]
[2]
  antibiotic sensitivity of HBB strains/isolates in culture: no effect (1 isolate)

## Nc1ccc(S(=O)(=O)Nc2ccccn2)cc1 [sulfapyridine]
[2]
  observed antibiotic and antifungal sensitivities (outcome, number of isolates): no effect (6 isolates); also recorded: no effect (1 isolate)

## O=C(O)c1cc(/N=N/c2ccc(S(=O)(=O)Nc3ccccn3)cc2)ccc1O [sulfasalazine]
[2]
  observed antibiotic and antifungal sensitivities (outcome, number of isolates): no effect (6 isolates); also recorded: no effect (isolate)

## Cc1cccc(N(C)C(=S)Oc2ccc3ccccc3c2)c1 [tolnaftate]
[2]; 2 μg/ml
  observed antibiotic and antifungal sensitivities (outcome, number of isolates): no effect (1 isolate)

## COc1cc(Cc2cnc(N)nc2N)cc(OC)c1OC [trimethoprim]
[2]
  antibiotic sensitivity of HBB strains/isolates in culture: resistance
  observed antibiotic and antifungal sensitivities (outcome, number of isolates): no effect (1 isolate)

## CN[C@H](CC(C)C)C(=O)N[C@H]1C(=O)N[C@@H](CC(N)=O)C(=O)N[C@H]2C(=O)N[C@H]3C(=O)N[C@H](C(=O)N[C@H](C(=O)O)c4cc(O)cc(O)c4-c4cc3ccc4O)[C@H](O)c3ccc(c(Cl)c3)Oc3cc2cc(c3O[C@@H]2O[C@H](CO)[C@@H](O)[C@H](O)[C@H]2O[C@H]2C[C@](C)(N)[C@H](O)[C@H](C)O2)Oc2ccc(cc2Cl)[C@H]1O [vancomycin]
[2]
  observed antibiotic and antifungal sensitivities (outcome, number of isolates): no effect (1 isolate)

## NP-40
[1]
  resistance of HBB to detergent (lysis): resist

## Triton X
[1]
  resistance of HBB to detergent (lysis): resist

## Tween-20
[1]
  resistance of HBB to detergent (lysis): resist

## amphoptericin
[2]; 0.25 μg/ml
  observed antibiotic and antifungal sensitivities (outcome, number of isolates): no effect (1 isolate)
[3]
  suppression of yeast-like forms: no suppression

## benzalkonium chloride
[1]; 1:1000
  resistance of HBB to disinfectant: resistant

## gentamycin
[2]; 2 μg/ml
  observed antibiotic and antifungal sensitivities (outcome, number of isolates): no effect (1 isolate)

## penicillin
[4]
  clinical response in patients (in words): not effective for a sustained response in most patients; also recorded: short-term response in many

## wheat germ agglutinin
[5]
  binding of lectin to exudate and bacteria: bind

B1: peanut agglutinin: lectin binding other sugars (protein, UniProt P02872 24-273, looked up)
Galactose-binding lectin: AETVSFNFNSFSEGNPAINFQGDVTVLSNGNIQLTNLNKVNSVGRVLYAMPVRIWSSATGNVASFLTSFSFEMKDIKDYDPADGIIFFIAPEDTQIPAGSIGGGTLGVSDTKGAGHFVGVEFDTYSNSEYNDPPTDHVGIDVNSVDSVKTVPWNSVSGAVVKVTVIYDSSTKTLSVAVTNDNGDITTIAQVVDLKAKLPERVKFGFSASGSLGGRQIHLIRSWSFTSTLITTTRRSIDNNEKKIMNMASA
[5]
  binding of lectin to exudate and bacteria: do not appear to bind
